The results in this text go back to patent US11261211B2, “19-NOR neuroactive steroids and methods of use thereof” (Sage Therapeutics, Inc., priority 2013, dated 2022).

One test concerns the target α1β2γ2 GABAA receptor (Homo sapiens (Human), UniProt P14867+P47870). In words: Patch clamp electrophysiology of recombinant α1β2γ2 GABAA receptors in LTK cells. The test is classed as cell-based. The note with it: for activity at 10 µM / Emax: LTK; for activity at 10 µM / α1β2γ2 GABA Qpatch in Ltk (Efficacy at 10 μm): 10 μM compound, Qpatch, Ltk cells, GABA EC20 2 μM; for activity at 10 µM: read-out: α1β2γ2 GABA Qpatch in Ltk (Efficacy at 10 μm); for Emax / EC50: potentiation of GABA EC20 (2 μM) current; for Emax: read-out: GABAa alpha1 (α1β2γ2) Emax (%); for EC50: read-out: GABAa alpha1 (α1β2γ2)EC50. The method, boiled down:
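Whole-cell voltage clamp at −80 mV, room temperature, in LTK cells stably expressing α1β2γ2 or CHO cells transiently expressing α4β3δ, manual or QPatch. Test article (0.01–10 μM, increasing, 30 s preincubation) then 2 μM GABA (EC20) for 2 s; potentiation = peak current with compound relative to GABA alone ×100.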

The target of the next test is α4β3δ GABAA receptor (Homo sapiens (Human), UniProt P28472+P48169). In words: Patch clamp electrophysiology of recombinant α4β3δ GABAA receptors in CHO cells. The class given is cell-based. The following applies: 10 μM compound, GABA EC20 2 μM; for activity at 10 µM: manual patch, read-out: α4β3δ GABA Manual Patch in CHO (Efficacy at 10 μM). How it is done: Cellular electrophysiology is used to measure the pharmacological properties of our GABAA receptor modulators in heterologous cell systems. Each compound is tested for its ability to affect GABA mediated currents at a submaximal agonist dose (GABA EC20=2 μM). LTK cells are stably transfected with the α1β2γ2 subunits of the GABA receptor and CHO cells are transiently transfected with the α4β3δ subunits via the Lipofecatamine method. Cells were passaged at a confluence of about 50-80% and then seeded onto 35 mm sterile culture dishes containing 2 ml culture complete medium without antibiotics or antimycotics. Confluent clusters of cells are electrically coupled (Pritchett et al., 1988). Because responses in distant cells are not adequately voltage clamped and because of uncertainties about the extent of coupling (Verdoorn et al., 1990), cells were cultivated at a density that enables the recording of single cells (without visible connections to other cells).
Whole cell currents were measured with HEKA EPC-10 amplifiers using PatchMaster software or by using the high throughput QPatch platform (Sophion). Bath solution for all experiments contained (in mM): NaCl 137 mM, KCl 4 mM, CaCl2 1.8 mM, MgCl2 1 mM, HEPES 10 mM, D-Glucose 10 mM, pH (NaOH) 7.4. In some cases 0.005% cremophor was also added. Intracellular (pipette) solution contained: KCl 130 mM, MgCl2 1 mM, Mg-ATP 5 mM, HEPES 10 mM, EGTA 5 mM, pH 7.2. During experiments, cells and solutions were maintained at room temperature (19° C.-30° C.). For manual patch clamp recordings, cell culture dishes were placed on the dish holder of the microscope and continuously perfused (1 ml/min) with bath solution. After formation of a Gigaohm seal between the patch electrodes and the cell (pipette resistance range: 2.5 MΩ-6.0 MΩ; seal resistance range: >1 GΩ) the cell membrane across the pipette tip was ruptured to assure electrical access to the cell interior (whole-cell patch-configuration). For experiments using the QPatch system, cells were transferred as suspension to the QPatch system in the bath solution and automated whole cell recordings were performed.
Cells were voltage clamped at a holding potential of −80 mV. For the analysis of test articles, GABA receptors were stimulated by 2 μM GABA after sequential pre-incubation of increasing concentrations of the test article. Pre-incubation duration was 30 s and the duration of the GABA stimulus was 2 s. Test articles were dissolved in DMSO to form stock solutions (10 mM). Test articles were diluted to 0.01, 0.1, 1, and 10 μM in bath solution. All concentrations of test articles were tested on each cell. The relative percentage potentiation was defined as the peak amplitude in response to GABA EC20 in the presence of the test article divided by the peak amplitude in response to GABA EC20 alone, multiplied by 100.

Consider `C[C@@]1(O)CC[C@H]2[C@H](CC[C@@H]3[C@@H]2CC[C@]2(C)[C@@H](C(=O)Cn4nc5ccccc5n4)CC[C@@H]32)C1` [SA-2], for which, at α1β2γ2 GABAA receptor, the activity at 10 µM was 100 to 500%, the maximal effect (Emax) lay in the range of 0 to 500% and the EC50 fell in the range of 500 to 1000 nM. Also, on α4β3δ GABAA receptor, the activity at 10 µM is over 500%.

As for `C[C@@]1(O)CC[C@H]2[C@H](CC[C@@H]3[C@@H]2CC[C@]2(C)[C@@H](C(=O)Cn4cc5ncccc5n4)CC[C@@H]32)C1` [SA-4], on α1β2γ2 GABAA receptor, the “α1β2γ2 GABA Qpatch in Ltk (Efficacy at 10 μm)” value (“α1β2γ2 GABA Qpatch in Ltk” for short) is reported as “C (“C” indicates an efficacy value of >500%)”, the Emax lay in the range of 500 to 1000% and the EC50 was 1000 to 2000 nM. Further, the “α4β3δ GABA Manual Patch in CHO (Efficacy at 10 μM)” value (“α4β3δ GABA Manual Patch in CHO” below) on α4β3δ GABAA receptor is given as “B (“B” indicates an efficacy value of >100-500%)”.

On to `C[C@@]1(O)CC[C@H]2[C@H](CC[C@@H]3[C@@H]2CC[C@]2(C)[C@@H](C(=O)Cn4cc5ccccc5n4)CC[C@@H]32)C1` [SA-6], for which, at α1β2γ2 GABAA receptor, the “α1β2γ2 GABA Qpatch in Ltk” value is given as “C (“C” indicates an efficacy value of >500%)”, the Emax was 500 to 1000% and the EC50 is over 2000 nM. Also, the “α4β3δ GABA Manual Patch in CHO” value at α4β3δ GABAA receptor is reported as “B (“B” indicates an efficacy value of >100-500%)”.

With `C[C@@]1(O)CC[C@H]2[C@H](CC[C@@H]3[C@@H]2CC[C@]2(C)[C@@H](C(=O)Cn4cc5c(n4)CCCC5)CC[C@@H]32)C1` [SA-7], the “α1β2γ2 GABA Qpatch in Ltk” value at α1β2γ2 GABAA receptor is given as “B (“B” indicates an efficacy value of >100-500%)”. Also, on α4β3δ GABAA receptor, the “α4β3δ GABA Manual Patch in CHO” value is “B (“B” indicates an efficacy value of >100-500%)”.

Take `C[C@@]1(O)CC[C@H]2[C@H](CC[C@@H]3[C@@H]2CC[C@]2(C)[C@@H](C(=O)Cn4nc5ccncc5n4)CC[C@@H]32)C1` [SA-11]: the activity at 10 µM is over 500% at α1β2γ2 GABAA receptor and 100 to 500% at α4β3δ GABAA receptor.

With `C[C@@]1(O)CC[C@H]2[C@H](CC[C@@H]3[C@@H]2CC[C@]2(C)[C@@H](C(=O)Cn4nc5cccnc5n4)CC[C@@H]32)C1` [SA-14], the activity at 10 µM is over 500% at α1β2γ2 GABAA receptor and 100 to 500% at α4β3δ GABAA receptor.

For the compound `C[C@@]1(O)CC[C@H]2[C@H](CC[C@@H]3[C@@H]2CC[C@]2(C)[C@@H](C(=O)Cn4cc5cc(F)ccc5n4)CC[C@@H]32)C1` [SA-16], the figures for the activity at 10 µM on α1β2γ2 GABAA receptor and at α4β3δ GABAA receptor were over 500% and 100 to 500%, respectively.

As for `C[C@@]1(O)CC[C@H]2[C@H](CC[C@@H]3[C@@H]2CC[C@]2(C)[C@@H](C(=O)Cn4cc5cccnc5n4)CC[C@@H]32)C1` [SA-18], at α1β2γ2 GABAA receptor, the “α1β2γ2 GABA Qpatch in Ltk” value is “C (“C” indicates an efficacy value of >500%)”, the Emax fell in the range of 500 to 1000% and the EC50 is over 2000 nM. Also, the “α4β3δ GABA Manual Patch in CHO” value at α4β3δ GABAA receptor is reported as “C (“C” indicates an efficacy value of >500%)”.

For `C[C@@]1(O)CC[C@H]2[C@H](CC[C@@H]3[C@@H]2CC[C@]2(C)[C@@H](C(=O)Cn4cc5ccncc5n4)CC[C@@H]32)C1` [SA-20], the “α1β2γ2 GABA Qpatch in Ltk” value at α1β2γ2 GABAA receptor is “C (“C” indicates an efficacy value of >500%)”. Moreover, the “α4β3δ GABA Manual Patch in CHO” value on α4β3δ GABAA receptor is listed as “C (“C” indicates an efficacy value of >500%)”.

Turning to `C[C@@]1(O)CC[C@H]2[C@H](CC[C@@H]3[C@@H]2CC[C@]2(C)[C@@H](C(=O)Cn4cc5ccc(F)cc5n4)CC[C@@H]32)C1` [SA-22], the figures for the activity at 10 µM at α1β2γ2 GABAA receptor and on α4β3δ GABAA receptor were over 500% and 100 to 500%, respectively.

As for `Cc1cc2cn(CC(=O)[C@H]3CC[C@H]4[C@@H]5CC[C@@H]6C[C@](C)(O)CC[C@@H]6[C@H]5CC[C@]34C)nc2cn1` [SA-24], the activity at 10 µM on α1β2γ2 GABAA receptor and at α4β3δ GABAA receptor was 100 to 500% each time.

For the compound `C[C@@]1(O)CC[C@H]2[C@H](CC[C@@H]3[C@@H]2CC[C@]2(C)[C@@H](C(=O)Cn4cc5ncc(Cl)cc5n4)CC[C@@H]32)C1` [SA-26], the activity at 10 µM on α1β2γ2 GABAA receptor is over 500%; at α4β3δ GABAA receptor, 100 to 500%.

Consider `C[C@@]1(O)CC[C@H]2[C@H](CC[C@@H]3[C@@H]2CC[C@]2(C)[C@@H](C(=O)Cn4cc5nccnc5n4)CC[C@@H]32)C1` [SA-28], for which the activity at 10 µM on α1β2γ2 GABAA receptor and at α4β3δ GABAA receptor was 100 to 500% each time.

As to `C[C@@]1(O)CC[C@H]2[C@H](CC[C@@H]3[C@@H]2CC[C@]2(C)[C@@H](C(=O)Cn4cc5cc(Cl)ncc5n4)CC[C@@H]32)C1` [SA-30], the activity at 10 µM at α1β2γ2 GABAA receptor and on α4β3δ GABAA receptor was over 500% throughout.

Regarding `C[C@@]1(O)CC[C@H]2[C@H](CC[C@@H]3[C@@H]2CC[C@]2(C)[C@@H](C(=O)Cn4cc5ncncc5n4)CC[C@@H]32)C1` [SA-32], the activity at 10 µM on α1β2γ2 GABAA receptor and on α4β3δ GABAA receptor was over 500% each time.
